Source: patent publication US5405859A (priority 1993, dated 1995)
≈ marks a conversion by molar mass, not a printed value. Where two headings read alike, the source gives them in different places.

Assays:
A2780 cells = experiment: Cancer cell screen (NCI protocol), A2780; conditions: Homo sapiens, A2780, read-out: LOGIC50(W)
OVCAR-5 cells = experiment: Cancer cell screen (NCI protocol), OVCAR-5; conditions: Homo sapiens, OVCAR-5, read-out: LOGIC50(W)
SNB-19 cells = experiment: Cancer cell screen (NCI protocol), SNB-19; conditions: Homo sapiens, SNB-19, read-out: LOGIC50(W)
HT29 cells = experiment: Cancer cell screen (NCI protocol), HT29; conditions: Homo sapiens, HT-29, read-out: LOGIC50(W)
SN-12KI cells = experiment: Cancer cell screen (NCI protocol), SN-12KI; conditions: read-out: LOGIC50(W)
H322 cells = experiment: Cancer cell screen (NCI protocol), H322; conditions: NCI-H322, read-out: LOGIC50(W)
A498 cells = experiment: Cancer cell screen (NCI protocol), A498; conditions: Homo sapiens, A498, read-out: LOGIC50(W)
MCF-7 cells = experiment: Cancer cell screen (NCI protocol), MCF-7; conditions: Homo sapiens, MCF7, read-out: LOGIC50(W)
H460 cells = experiment: Cancer cell screen (NCI protocol), H460; conditions: Homo sapiens, NCI-H460, read-out: LOGIC50(W)
[1] = test system: standard group of cancer cells; experiment: Screen against standard group of cancer cells, whole panel; conditions: for .DELTA / .RANGE: log IC50, cell panel; for IC50: read-out: .AV.LOG IC50; for relative activity: review of Tables IV-VI
H520 cells = experiment: Cancer cell screen (NCI protocol), H520; conditions: Homo sapiens, NCI-H520, read-out: LOGIC50(W)
OVCAR-4 cells = experiment: Cancer cell screen (NCI protocol), OVCAR-4; conditions: Homo sapiens, OVCAR-4, read-out: LOGIC50(W)
SK-MEL5 cells = experiment: Cancer cell screen (NCI protocol), SK-MEL5; conditions: Homo sapiens, SK-MEL-5, read-out: LOGIC50(W)
[2] = Initial screening, relative activities of the patellazoles
HL-60 cells = experiment: Cancer cell screen (NCI protocol), HL-60; conditions: Homo sapiens, HL-60, read-out: LOGIC50(W)
LOVO cells = experiment: Cancer cell screen (NCI protocol), LOVO; conditions: Homo sapiens, read-out: LOGIC50(W)
U-251 cells = experiment: Cancer cell screen (NCI protocol), U-251; conditions: Homo sapiens, U-251, read-out: LOGIC50(W)
EKV-X cells = experiment: Cancer cell screen (NCI protocol), EKV-X; conditions: Homo sapiens, EKVX, read-out: LOGIC50(W)
SW620 cells = experiment: Cancer cell screen (NCI protocol), SW620; conditions: Homo sapiens, SW-620, read-out: LOGIC50(W)
OVCAR-8 cells = experiment: Cancer cell screen (NCI protocol), OVCAR-8; conditions: Homo sapiens, OVCAR-8, read-out: LOGIC50(W)
TE-671 cells = experiment: Cancer cell screen (NCI protocol), TE-671; conditions: Homo sapiens, TE-671, read-out: LOGIC50(W)
SK-MES1 cells = experiment: Cancer cell screen (NCI protocol), SK-MES1; conditions: Homo sapiens, SK-MES-1, read-out: LOGIC50(W)
MCF-7/A cells = experiment: Cancer cell screen (NCI protocol), MCF-7/A; conditions: MCF7a, read-out: LOGIC50(W)
UO-31 cells = experiment: Cancer cell screen (NCI protocol), UO-31; conditions: Homo sapiens, UO-31, read-out: LOGIC50(W)
P388/AD cells = experiment: Cancer cell screen (NCI protocol), P388/AD; conditions: Mus musculus, P388, read-out: LOGIC50(W)
MOLT-4 cells = experiment: Cancer cell screen (NCI protocol), MOLT-4; conditions: Homo sapiens, MOLT-4, read-out: LOGIC50(W)
A704 cells = experiment: Cancer cell screen (NCI protocol), A704; conditions: Homo sapiens, A704, read-out: LOGIC50(W)
P388 cells = experiment: Cancer cell screen (NCI protocol), P388; conditions: Mus musculus, P388, read-out: LOGIC50(W)
SNB-75 cells = experiment: Cancer cell screen (NCI protocol), SNB-75; conditions: Homo sapiens, SNB-75, read-out: LOGIC50(W)
LOX cells = experiment: Cancer cell screen (NCI protocol), LOX; conditions: read-out: LOGIC50(W)
SNB-44 cells = experiment: Cancer cell screen (NCI protocol), SNB-44; conditions: SNB44, read-out: LOGIC50(W)
HSV-2 = experiment: Antiviral testing, HSV-2; type: cell-based, herpes virus HSV-2; conditions: for HSV-2 (antiviral concentration): Vero host cells, kind of endpoint not given; for activity against herpes virus HSV-2: at concentrations not toxic for host cells (Vero)
From the text: (§1) Substantially pure compounds of Patellazole B and C were screened for activity. These extracts from a marine tunicate (L. patella) were submitted for antiviral testing.

A549 cells = experiment: Cancer cell screen (NCI protocol), A549; conditions: Homo sapiens, A549, read-out: LOGIC50(W)
HSV-1 = experiment: Antiviral testing, HSV-1; type: cell-based, herpes virus HSV-1; conditions: for HSV-L (antiviral concentration): Vero host cells, kind of endpoint not given; for activity against herpes virus HSV-1: at concentrations not toxic for host cells (Vero)
From the text: as §1

VERO = experiment: Cytotoxicity in Vero host cells; type: cell-based; conditions: for Cytotoxicity Vero: Vero cells, kind of endpoint not given; for toxicity for the host cells: Vero, at concentrations active against HSV-1 and HSV-2
From the text: as §1

A322 cells = experiment: Cancer cell screen (NCI protocol), A322; conditions: read-out: LOGIC50(W)
[3] = Patellazole B versus Patellazole C

Row | SMILES | IC50 (A2780 cells) [ng/mL] | IC50 (OVCAR-5 cells) [ng/mL] | IC50 (SNB-19 cells) [ng/mL] | IC50 (HT29 cells) [ng/mL] | IC50 (SN-12KI cells) [ng/mL] | IC50 (A498 cells) [ng/mL] | IC50 (H460 cells) [ng/mL] | .DELTA [1] | .RANGE [1] | IC50 [1] [ng/mL] | IC50 (OVCAR-4 cells) [ng/mL] | IC50 (SK-MEL5 cells) [ng/mL] | relative activities of the patellazoles [2] | IC50 (LOVO cells) [ng/mL] | IC50 (U-251 cells) [ng/mL] | IC50 (EKV-X cells) [ng/mL] | IC50 (TE-671 cells) [ng/mL] | IC50 (SK-MES1 cells) [ng/mL] | IC50 (MCF-7/A cells) [ng/mL] | IC50 (MOLT-4 cells) [ng/mL] | also measured
1 | CCC(C)C(=O)OC1(C)CCC(C)CC(O)C(C)C(=O)C(C)/C=C\CC(C)C(O)C(O)C(OC)/C(C)=C/C=C/C(C)C(C(C)(O)/C=C(/C)Cc2csc(C3(C)OC3C)n2)OC1=O (centres unmarked) [Patellazole A] | 0.0398 (≈ 0.0448 nM) | 0.0501 (≈ 0.0564 nM) | 0.0794 (≈ 0.0894 nM) | < 0.0316 | < 0.0316 | 0.0631 (≈ 0.071 nM) | 0.0398 (≈ 0.0448 nM) | 0.5 | 2.3 | 0.0977 (≈ 0.11 nM) | 0.1 (≈ 0.113 nM) | 0.158 (≈ 0.178 nM) | A>B>C | 0.0794 (≈ 0.0894 nM) | < 0.0316 | 0.0794 (≈ 0.0894 nM) | < 0.0316 | < 0.0316 | 0.501 (≈ 0.564 nM) | 0.0794 (≈ 0.0894 nM) | IC50 (H322 cells): 0.126 ng/mL (≈ 0.142 nM); IC50 (MCF-7 cells): 0.126 ng/mL (≈ 0.142 nM); relative activity [1]: slightly more active than Patellazole B; IC50 (H520 cells): 0.794 ng/mL (≈ 0.894 nM); IC50 (HL-60 cells): 0.126 ng/mL (≈ 0.142 nM); IC50 (SW620 cells): 0.1 ng/mL (≈ 0.113 nM); IC50 (OVCAR-8 cells): 0.1 ng/mL (≈ 0.113 nM); IC50 (UO-31 cells): 0.126 ng/mL (≈ 0.142 nM); IC50 (P388/AD cells): 0.126 ng/mL (≈ 0.142 nM); IC50 (A704 cells): 0.1 ng/mL (≈ 0.113 nM); IC50 (P388 cells): 0.1 ng/mL (≈ 0.113 nM); IC50 (SNB-75 cells): 6.31 ng/mL (≈ 7.1 nM)
2 | COC1/C(C)=C/C=C/C(C)C(C(C)(O)/C=C(/C)Cc2csc(C3(C)OC3C)n2)OC(=O)C(C)(OC(=O)C(C)C(C)O)CCC(C)CC(O)C(C)C(=O)C(C)/C=C\CC(C)C(O)C1O (centres unmarked) [Patellazole B] | < 0.0316 | < 0.0316 | < 0.0316 | < 0.0316 | < 0.0316 | < 0.0316 | < 0.0316 | 0 | 0 | 0.0316 (≈ 0.035 nM) | < 0.0316 | < 0.0316 | A>B>C | < 0.0316 | < 0.0316 | < 0.0316 | < 0.0316 | < 0.0316 | < 0.0316 | < 0.0316 | IC50 (H322 cells): < 0.0316 ng/mL; IC50 (MCF-7 cells): < 0.0316 ng/mL; IC50 (LOX cells): < 0.0316 ng/mL; relative activity [1]: significantly more active than Patellazole C; IC50 (SNB-44 cells): < 0.0316 ng/mL; IC50 (SW620 cells): < 0.0316 ng/mL; relative antiviral activity against HSV-2 (HSV-2; [3]): significantly more potent; HSV-2 (antiviral concentration) (HSV-2): 0.06 µg/mL; activity against herpes virus HSV-2 (HSV-2): showed activity; IC50 (A549 cells): < 0.0316 ng/mL; relative antiviral activity against HSV-1 (HSV-1; [3]): significantly more potent; HSV-L (antiviral concentration) (HSV-1): 0.0005 µg/mL; activity against herpes virus HSV-1 (HSV-1): showed activity; IC50 (UO-31 cells): < 0.0316 ng/mL; IC50 (P388/AD cells): < 0.0316 ng/mL; Cytotoxicity Vero (VERO): 0.75 µg/mL; toxicity for the host cells (VERO): not toxic; IC50 (A704 cells): < 0.0316 ng/mL; IC50 (P388 cells): < 0.0316 ng/mL; IC50 (SNB-75 cells): < 0.0316 ng/mL
3 | COC1/C(C)=C/C=C/C(C)C(C(C)(O)/C=C(/C)Cc2csc(C3(C)OC3C)n2)OC(=O)C(C)(OC(=O)C(C)C(C)O)CCC(C)CC(O)C(C)C(=O)C(CO)/C=C\CC(C)C(O)C1O (centres unmarked) [Patellazole C] | 5.01 (≈ 5.45 nM) | 2.51 (≈ 2.73 nM) | 10 (≈ 10.9 nM) | 1 (≈ 1.09 nM) | 10 (≈ 10.9 nM) | 10 (≈ 10.9 nM) | 7.94 (≈ 8.63 nM) | 1.1 | 2.5 | 10.2 (≈ 11.1 nM) | 7.94 (≈ 8.63 nM) | 12.6 (≈ 13.7 nM) | generally less active | 6.31 (≈ 6.86 nM) | 7.94 (≈ 8.63 nM) | 10 (≈ 10.9 nM) | 7.94 (≈ 8.63 nM) | 7.94 (≈ 8.63 nM) | > 316 | 7.94 (≈ 8.63 nM) | relative activities of the patellazoles ([2]; listed as C): A>B>C; IC50 (A322 cells): 7.94 ng/mL (≈ 8.63 nM); IC50 (OVCAR-8 cells): 10 ng/mL (≈ 10.9 nM); HSV-2 (antiviral concentration) (HSV-2): 0.80 µg/mL; activity against herpes virus HSV-2 (HSV-2): showed activity; HSV-L (antiviral concentration) (HSV-1): 0.30 µg/mL; activity against herpes virus HSV-1 (HSV-1): showed activity; Cytotoxicity Vero (VERO): 4.0 µg/mL; toxicity for the host cells (VERO): not toxic; IC50 (A704 cells): 79.4 ng/mL (≈ 86.3 nM); IC50 (P388 cells): 12.6 ng/mL (≈ 13.7 nM); IC50 (SNB-75 cells): > 31.6 ng/mL
